Measurements published in the kinase profiling compilation of Christmann-Franck et al. (2016).

Tests used:
Test in all cases: radiometric filter-binding kinase assay, Kinaseprofiler
SRPK3 (human) = SRPK3 (human) (UniProt Q9UPE1); details: ATP 15 µM
PRKCI (human) = PRKCI (human) (UniProt P41743); details: ATP 155 µM
CAMK2G (human) = CAMK2G (human) (UniProt Q13555); details: ATP 10 µM
FGR (human) = FGR (human) (UniProt P09769); details: ATP 45 µM
[1] = system: EEF2K (human), O00418 [H23R]; details: ATP 15 µM
SRC (human) = SRC (human) (UniProt P12931); details: ATP 200 µM
Sequence of SRC (human) (P12931 whole entry, looked up): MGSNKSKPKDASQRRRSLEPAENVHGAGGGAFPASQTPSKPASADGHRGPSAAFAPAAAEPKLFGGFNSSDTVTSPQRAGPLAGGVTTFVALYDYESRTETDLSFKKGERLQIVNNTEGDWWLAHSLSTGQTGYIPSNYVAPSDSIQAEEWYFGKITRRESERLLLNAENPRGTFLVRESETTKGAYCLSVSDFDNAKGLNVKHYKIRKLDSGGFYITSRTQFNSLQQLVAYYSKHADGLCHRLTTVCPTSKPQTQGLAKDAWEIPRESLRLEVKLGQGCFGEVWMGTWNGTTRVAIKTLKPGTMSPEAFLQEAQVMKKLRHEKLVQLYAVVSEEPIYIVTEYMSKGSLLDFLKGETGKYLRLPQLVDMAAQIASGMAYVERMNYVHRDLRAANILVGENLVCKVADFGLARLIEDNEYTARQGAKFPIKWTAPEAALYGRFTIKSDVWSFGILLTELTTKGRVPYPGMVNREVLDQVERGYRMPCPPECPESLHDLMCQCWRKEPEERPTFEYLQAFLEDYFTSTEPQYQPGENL

PASK (human) = PASK (human) (UniProt Q96RG2); details: ATP 15 µM
PDPK1 (human) = PDPK1 (human) (UniProt O15530); details: ATP 10 µM
Sequence of PDPK1 (human) (O15530 whole entry, looked up): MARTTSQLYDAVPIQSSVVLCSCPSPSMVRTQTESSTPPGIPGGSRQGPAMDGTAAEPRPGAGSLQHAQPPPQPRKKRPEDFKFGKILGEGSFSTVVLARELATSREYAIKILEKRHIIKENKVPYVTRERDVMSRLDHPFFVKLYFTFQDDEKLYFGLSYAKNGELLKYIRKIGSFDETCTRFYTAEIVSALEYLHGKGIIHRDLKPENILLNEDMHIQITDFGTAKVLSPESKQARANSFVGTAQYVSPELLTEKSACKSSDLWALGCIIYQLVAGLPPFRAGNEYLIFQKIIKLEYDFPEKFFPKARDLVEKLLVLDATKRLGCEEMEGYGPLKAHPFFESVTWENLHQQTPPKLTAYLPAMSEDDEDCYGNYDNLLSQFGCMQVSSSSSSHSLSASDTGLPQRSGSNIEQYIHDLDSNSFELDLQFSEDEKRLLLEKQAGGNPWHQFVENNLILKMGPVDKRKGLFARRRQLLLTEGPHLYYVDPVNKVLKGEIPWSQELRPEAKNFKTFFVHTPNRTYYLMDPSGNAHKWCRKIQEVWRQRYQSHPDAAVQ

FGFR1 (human) = FGFR1 (human) (UniProt P11362); details: ATP 200 µM
CDK9 CCNT1 (human) = CDK9 CCNT1 (human) (UniProt P50750+O60563); details: ATP 45 µM
FER (human) = FER (human) (UniProt P16591); details: ATP 70 µM
NUAK1 (human) = NUAK1 (human) (UniProt O60285); details: ATP 45 µM
HIPK1 (human) = HIPK1 (human) (UniProt Q86Z02); details: ATP 45 µM
SIK1 (human) = SIK1 (human) (UniProt P57059); details: ATP 45 µM
Sequence of SIK1 (human) (P57059 whole entry, looked up): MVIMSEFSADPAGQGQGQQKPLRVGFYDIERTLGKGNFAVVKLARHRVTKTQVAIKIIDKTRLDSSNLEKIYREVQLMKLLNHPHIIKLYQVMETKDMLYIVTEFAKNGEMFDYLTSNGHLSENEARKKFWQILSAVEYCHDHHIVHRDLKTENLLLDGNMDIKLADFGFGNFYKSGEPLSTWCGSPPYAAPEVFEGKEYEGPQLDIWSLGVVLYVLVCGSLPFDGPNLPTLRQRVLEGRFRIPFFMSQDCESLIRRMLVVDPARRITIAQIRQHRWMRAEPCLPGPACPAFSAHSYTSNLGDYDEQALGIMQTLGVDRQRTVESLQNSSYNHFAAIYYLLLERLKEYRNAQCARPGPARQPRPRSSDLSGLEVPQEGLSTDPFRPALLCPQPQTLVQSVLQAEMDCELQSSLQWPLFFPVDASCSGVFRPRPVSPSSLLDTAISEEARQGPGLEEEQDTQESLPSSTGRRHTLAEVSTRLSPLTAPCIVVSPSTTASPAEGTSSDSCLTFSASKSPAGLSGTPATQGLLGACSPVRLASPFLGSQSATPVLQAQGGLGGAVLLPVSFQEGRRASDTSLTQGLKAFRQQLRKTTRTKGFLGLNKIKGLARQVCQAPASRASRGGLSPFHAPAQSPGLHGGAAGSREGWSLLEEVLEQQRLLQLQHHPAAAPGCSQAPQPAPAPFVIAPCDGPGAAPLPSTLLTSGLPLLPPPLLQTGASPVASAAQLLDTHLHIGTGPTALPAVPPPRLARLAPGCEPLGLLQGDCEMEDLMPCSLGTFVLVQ

NTRK1 (human) = NTRK1 (human) (UniProt P04629); details: ATP 120 µM
CSNK1G1 (human) = CSNK1G1 (human) (UniProt Q9HCP0); details: ATP 15 µM
PRKCB1 (human) = PRKCB1 (human) (UniProt P05771); details: ATP 10 µM
Sequence of PRKCB1 (human) (P05771 whole entry, looked up): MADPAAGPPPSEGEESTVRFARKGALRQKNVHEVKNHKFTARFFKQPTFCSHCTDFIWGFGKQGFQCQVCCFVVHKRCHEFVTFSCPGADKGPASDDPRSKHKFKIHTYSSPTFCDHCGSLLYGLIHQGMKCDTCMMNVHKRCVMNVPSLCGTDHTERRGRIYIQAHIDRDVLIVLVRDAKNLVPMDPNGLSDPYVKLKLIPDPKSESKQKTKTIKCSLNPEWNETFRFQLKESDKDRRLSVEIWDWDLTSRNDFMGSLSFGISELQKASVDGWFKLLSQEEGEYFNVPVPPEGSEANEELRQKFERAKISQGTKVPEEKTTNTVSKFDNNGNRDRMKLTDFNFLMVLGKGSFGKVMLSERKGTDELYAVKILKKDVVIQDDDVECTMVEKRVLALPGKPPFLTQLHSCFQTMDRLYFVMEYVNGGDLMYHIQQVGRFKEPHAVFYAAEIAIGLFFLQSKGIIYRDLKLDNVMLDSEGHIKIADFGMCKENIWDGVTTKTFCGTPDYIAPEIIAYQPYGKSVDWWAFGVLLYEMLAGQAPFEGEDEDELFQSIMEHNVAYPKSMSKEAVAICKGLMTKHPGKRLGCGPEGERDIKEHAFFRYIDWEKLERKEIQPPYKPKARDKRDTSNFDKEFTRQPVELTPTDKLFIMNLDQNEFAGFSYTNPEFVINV

[2] = system: RPS6KB1 (human), P23443 [T412E]; details: ATP 15 µM
BRSK1 (human) = BRSK1 (human) (UniProt Q8TDC3); details: ATP 200 µM
PRKCZ (human) = PRKCZ (human) (UniProt Q05513); details: ATP 15 µM
CHUK (human) = CHUK (human) (UniProt O15111); details: ATP 10 µM
Sequence of CHUK (human) (O15111 whole entry, looked up): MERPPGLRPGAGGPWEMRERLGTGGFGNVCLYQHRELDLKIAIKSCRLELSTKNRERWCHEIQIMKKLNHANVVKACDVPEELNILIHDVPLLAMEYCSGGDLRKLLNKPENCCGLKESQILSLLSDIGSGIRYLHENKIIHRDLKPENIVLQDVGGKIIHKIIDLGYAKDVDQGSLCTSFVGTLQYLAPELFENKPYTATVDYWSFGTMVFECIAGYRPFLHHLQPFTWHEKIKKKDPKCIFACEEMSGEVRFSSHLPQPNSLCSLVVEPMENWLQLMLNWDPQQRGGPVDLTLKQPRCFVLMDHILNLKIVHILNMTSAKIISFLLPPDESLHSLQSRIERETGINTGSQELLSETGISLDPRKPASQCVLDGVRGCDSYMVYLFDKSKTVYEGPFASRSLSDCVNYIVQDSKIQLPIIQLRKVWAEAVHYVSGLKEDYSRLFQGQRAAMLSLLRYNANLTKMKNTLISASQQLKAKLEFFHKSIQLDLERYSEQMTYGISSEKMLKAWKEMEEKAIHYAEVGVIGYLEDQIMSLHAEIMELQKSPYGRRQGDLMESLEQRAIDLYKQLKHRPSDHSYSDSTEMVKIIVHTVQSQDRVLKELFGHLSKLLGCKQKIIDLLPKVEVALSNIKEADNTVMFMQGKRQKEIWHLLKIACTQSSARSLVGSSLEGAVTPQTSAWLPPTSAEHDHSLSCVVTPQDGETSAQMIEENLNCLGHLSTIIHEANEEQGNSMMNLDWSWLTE

CDK7 CCNH MNAT1 (human) = CDK7 CCNH MNAT1 (human) (UniProt P50613+P51948+P51946); details: ATP 90 µM
GRK6 (human) = GRK6 (human) (UniProt P43250); details: ATP 45 µM
PAK4 (human) = PAK4 (human) (UniProt O96013); details: ATP 10 µM
FGFR3 (human) = FGFR3 (human) (UniProt P22607); details: ATP 15 µM
Sequence of FGFR3 (human) (P22607 whole entry, looked up): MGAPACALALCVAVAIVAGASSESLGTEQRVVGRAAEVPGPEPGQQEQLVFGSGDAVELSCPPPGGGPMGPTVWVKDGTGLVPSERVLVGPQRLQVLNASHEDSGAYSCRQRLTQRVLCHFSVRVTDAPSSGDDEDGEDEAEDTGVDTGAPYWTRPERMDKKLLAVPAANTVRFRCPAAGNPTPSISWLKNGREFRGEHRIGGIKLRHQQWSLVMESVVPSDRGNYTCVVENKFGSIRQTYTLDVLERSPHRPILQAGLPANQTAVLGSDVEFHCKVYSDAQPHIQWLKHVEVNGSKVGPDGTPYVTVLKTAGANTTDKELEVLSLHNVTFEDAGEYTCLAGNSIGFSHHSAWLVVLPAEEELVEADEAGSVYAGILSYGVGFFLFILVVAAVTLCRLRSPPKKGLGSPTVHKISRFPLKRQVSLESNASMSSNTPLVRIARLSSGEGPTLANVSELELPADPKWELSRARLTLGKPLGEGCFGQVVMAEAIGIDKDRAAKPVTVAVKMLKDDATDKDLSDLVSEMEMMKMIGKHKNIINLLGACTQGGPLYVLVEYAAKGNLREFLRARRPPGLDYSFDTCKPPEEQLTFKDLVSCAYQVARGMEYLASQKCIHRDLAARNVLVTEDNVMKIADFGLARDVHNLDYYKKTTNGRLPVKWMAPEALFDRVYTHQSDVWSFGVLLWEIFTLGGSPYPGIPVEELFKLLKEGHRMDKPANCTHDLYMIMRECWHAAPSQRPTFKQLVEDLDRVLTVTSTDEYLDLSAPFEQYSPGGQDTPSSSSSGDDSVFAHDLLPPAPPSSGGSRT

PRKCQ (human) = PRKCQ (human) (UniProt Q04759); details: ATP 15 µM
FGFR2 (human) = FGFR2 (human) (UniProt P21802); details: ATP 90 µM
STK33 (human) = STK33 (human) (UniProt Q9BYT3); details: ATP 155 µM
CDC42BPB (human) = CDC42BPB (human) (UniProt Q9Y5S2); details: ATP 10 µM
EPHB4 (human) = EPHB4 (human) (UniProt P54760); details: ATP 10 µM
PAK7 (human) = PAK7 (human) (UniProt Q9P286); details: ATP 15 µM
MAPKAPK3 (human) = MAPKAPK3 (human) (UniProt Q16644); details: ATP 90 µM
FLT1 (human) = FLT1 (human) (UniProt P17948); details: ATP 200 µM

Sequence of PRKCI (human) (P41743 whole entry, looked up): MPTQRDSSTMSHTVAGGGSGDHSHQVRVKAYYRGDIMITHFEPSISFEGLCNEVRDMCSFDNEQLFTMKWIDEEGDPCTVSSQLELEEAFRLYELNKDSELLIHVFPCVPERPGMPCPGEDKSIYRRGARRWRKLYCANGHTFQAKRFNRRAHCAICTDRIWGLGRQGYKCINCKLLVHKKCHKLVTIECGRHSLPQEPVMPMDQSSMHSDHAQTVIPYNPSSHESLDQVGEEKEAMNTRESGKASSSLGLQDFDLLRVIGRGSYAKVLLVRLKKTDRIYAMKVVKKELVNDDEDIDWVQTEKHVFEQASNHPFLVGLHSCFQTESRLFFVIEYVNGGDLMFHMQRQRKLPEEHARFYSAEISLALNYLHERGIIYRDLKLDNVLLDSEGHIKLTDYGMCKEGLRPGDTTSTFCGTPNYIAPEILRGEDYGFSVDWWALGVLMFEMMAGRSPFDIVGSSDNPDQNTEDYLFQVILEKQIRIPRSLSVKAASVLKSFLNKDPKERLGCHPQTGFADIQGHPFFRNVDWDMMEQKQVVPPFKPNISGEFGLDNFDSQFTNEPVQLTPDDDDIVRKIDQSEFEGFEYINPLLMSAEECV

- residual activity (SRPK3 (human); compound 1.0 µM): 85%
- residual activity (SRPK3 (human); compound 10.0 µM): 46%
- residual activity (PRKCI (human); compound 1.0 µM): 96%
- residual activity (PRKCI (human); compound 10.0 µM): 105%
- residual activity (CAMK2G (human); compound 1.0 µM): 12%
- residual activity (CAMK2G (human); compound 10.0 µM): 1%
- residual activity (FGR (human); compound 1.0 µM): 8%
- residual activity (FGR (human); compound 10.0 µM): 1%
- residual activity ([1]; compound 1.0 µM): 109%
- residual activity ([1]; compound 10.0 µM): 93%
- residual activity (SRC (human); compound 1.0 µM): 35%
- residual activity (SRC (human); compound 10.0 µM): 5%
- residual activity (PASK (human); compound 1.0 µM): 112%
- residual activity (PASK (human); compound 10.0 µM): 76%
- residual activity (PDPK1 (human); compound 1.0 µM): 53%
- residual activity (PDPK1 (human); compound 10.0 µM): 9%
- residual activity (FGFR1 (human); compound 1.0 µM): 3%
- residual activity (FGFR1 (human); compound 10.0 µM): -1%
- residual activity (CDK9 CCNT1 (human); compound 1.0 µM): 26%
- residual activity (CDK9 CCNT1 (human); compound 10.0 µM): 11%
- residual activity (FER (human); compound 1.0 µM): 70%
- residual activity (FER (human); compound 10.0 µM): 53%
- residual activity (NUAK1 (human); compound 1.0 µM): 4%
- residual activity (NUAK1 (human); compound 10.0 µM): 7%
- residual activity (HIPK1 (human); compound 1.0 µM): 90%
- residual activity (HIPK1 (human); compound 10.0 µM): 73%
- residual activity (SIK1 (human); compound 1.0 µM): 43%
- residual activity (SIK1 (human); compound 10.0 µM): 8%
- residual activity (NTRK1 (human); compound 1.0 µM): 0%
- residual activity (NTRK1 (human); compound 10.0 µM): 0%
- residual activity (CSNK1G1 (human); compound 1.0 µM): 57%
- residual activity (CSNK1G1 (human); compound 10.0 µM): 19%
- residual activity (PRKCB1 (human); compound 1.0 µM): 93%
- residual activity (PRKCB1 (human); compound 10.0 µM): 94%
- residual activity ([2]; compound 1.0 µM): 37%
- residual activity ([2]; compound 10.0 µM): 13%
- residual activity (BRSK1 (human); compound 1.0 µM): 13%
- residual activity (BRSK1 (human); compound 10.0 µM): 12%
- residual activity (PRKCZ (human); compound 1.0 µM): 101%
- residual activity (PRKCZ (human); compound 10.0 µM): 98%
- residual activity (CHUK (human); compound 1.0 µM): 76%
- residual activity (CHUK (human); compound 10.0 µM): 57%
- residual activity (CDK7 CCNH MNAT1 (human); compound 1.0 µM): 42%
- residual activity (CDK7 CCNH MNAT1 (human); compound 10.0 µM): 16%
- residual activity (GRK6 (human); compound 1.0 µM): 81%
- residual activity (GRK6 (human); compound 10.0 µM): 80%
- residual activity (PAK4 (human); compound 1.0 µM): 55%
- residual activity (PAK4 (human); compound 10.0 µM): 14%
- residual activity (FGFR3 (human); compound 1.0 µM): 20%
- residual activity (FGFR3 (human); compound 10.0 µM): 2%
- residual activity (PRKCQ (human); compound 1.0 µM): 81%
- residual activity (PRKCQ (human); compound 10.0 µM): 55%
- residual activity (FGFR2 (human); compound 1.0 µM): 22%
- residual activity (FGFR2 (human); compound 10.0 µM): 2%
- residual activity (STK33 (human); compound 1.0 µM): 43%
- residual activity (STK33 (human); compound 10.0 µM): 8%
- residual activity (CDC42BPB (human); compound 1.0 µM): 106%
- residual activity (CDC42BPB (human); compound 10.0 µM): 103%
- residual activity (EPHB4 (human); compound 1.0 µM): 67%
- residual activity (EPHB4 (human); compound 10.0 µM): 13%
- residual activity (PAK7 (human); compound 1.0 µM): 64%
- residual activity (PAK7 (human); compound 10.0 µM): 33%
- residual activity (MAPKAPK3 (human); compound 1.0 µM): 117%
- residual activity (MAPKAPK3 (human); compound 10.0 µM): 88%
- residual activity (FLT1 (human); compound 1.0 µM): 1%
- residual activity (FLT1 (human); compound 10.0 µM): 0%
Compound: O=C1Nc2ccccc2/C1=C1\Nc2ccccc2\C1=N/O
